{
  "source": "patent US20180369244A1",
  "about": "“BTK Inhibitors to Treat Solid Tumors Through Modulation of the Tumor Microenvironment” (Acerta Pharma B.V., priority 2014, published 2018)",
  "key": {"[1]": {"test_system": "KPC derived mouse pancreatic cancer cells", "experiment": "KPC derived pancreatic cancer cells injected into pancreas, Formula (II) and/or gemcitabine", "assay_type": "in vivo", "settings": "Formula (II) 15 mg/kg/BID oral; gemcitabine 15 mg/kg IV every 4 days for 3 injections", "experimental": "In this study, KPC derived mouse pancreatic cancer cells (KrasGl2D;Trp53R^172H;Pdx1-Cre) were injected into the pancreases.\nSingle cell suspensions from tumor samples. Mouse tumor tissue was collected and stored in PBS/0.1% soybean trypsin inhibitor prior to enzymatic dissociation. Samples were finely minced with a scissors and mouse tissue was transferred into DMEM containing 1.0 mg/ml collagenase IV (Gibco), 0.1% soybean trypsin inhibitor, and 50 U/ml DNase (Roche) and incubated at 37 C for 30 min. with constant stirring while human tissue was digested in 2.0 mg/ml collagenase IV, 1.0 mg/ml hyluronidase, 0.1% soybean trypsin inhibitor, and 50 U/ml DNase for 45 minutes. Suspensions were filtered through a 100 micron filter and washed with FACS buffer (PBS/0.5% BSA/2.0 mM EDTA) prior to staining. Two million total cells were stained with antibodies as indicated. Intracellular detection of FoxP3 was achieved following permeabilization with BD Perm Buffer III (BD Biosciences) and eBioscience Fix/Perm respectively. Following surface staining, samples were acquired on a BD Fortessa and analyzed using FlowJo (Treestar) software."}, "NK cells": {"test_system": "NK cells", "experiment": "Antibody-dependent NK cell IFN-γ secretion (ELISA)", "assay_type": "cell-based, human", "settings": "1 μM", "procedure": "The HER18 cells were maintained in DEM supplemented with fetal bovine serum, penicillin-streptomycin and. Prior to assay, HER18 cells were harvested using trypsin-EDTA, washed with phosphate-buffered saline (PBS) containing 5% serum and viable cells were counted. […] NK cells from CLL patients and healthy volunteers were enriched from peripheral blood collected in sodium citrate anti-coagulant tubes and then subject to density centrifugation. Removal of non NK cells was performed using negative selection by MACS separation. Freshly isolated NK cells were washed three times, enumerated, and then used immediately for ADCC assays.\nCytokine secretion was determined as follows. Rituximab and trastuzumab-dependent NK-cell mediated degranulation and cytokine release were assessed using lymphoma and HER2+ breast cancer cell lines (DHL-4 and HER18, respectively). […] NK cells from healthy donors were enriched as described above and then added to the target cells and incubated for 4 hours at 37° C. Triplicate cultures were performed on NK cells from donors. After incubation, supernatants were harvested, centrifuged briefly, and then analyzed for interferon-γ using an enzyme-linked immunosorbent assay (ELISA)."}},
  "data": [
    {"smiles": "CC#CC(=O)N1CCC[C@H]1c1nc(-c2ccc(C(=O)Nc3ccccn3)cc2)c2c(N)nccn12", "note": "[Formula (II), (S)-4-(8-amino-3-(1-(but-2-ynoyl)pyrrolidin-2-yl)imidazo[1,5-a]pyrazin-1-yl)-N-(pyridin-2-yl)benzamide]", "values": [
      {"measurement": "reduction in tumor size", "setting": "[1]", "value": "show efficacy alone"},
      {"measurement": "IFN-γ or NK cell degranulation", "setting": "NK cells", "value": "did not inhibit"},
      {"measurement": "inhibition of trastuzumab-stimulated NK cell cytokine release", "setting": "NK cells; HER18 target cells", "value": "no inhibitory effect"}
    ]}
  ]
}
